Test results as given in patent publication US8921272B2, “Herbicidal composition” (Ishihara Sangyo Kaisha, Ltd., priority 2011, dated 2014).

Assays:
Type in all cases: in vivo
[1] = test system: goosegrass (Eleusine indica (L.) Gaertn.); assay: Test Example 1: soil treatment pot test, visually observed growth inhibition of goosegrass; details: soil treatment one day after sowing, 14 days after treatment, 0 = non-treated, 100 = complete kill, read-out: Growth inhibition rate (%) of goosegrass, Measured value
Source text: When the herbicidal activity in a case where two active ingredients are combined, is larger than the simple sum of the respective herbicidal activities of the two active ingredients (the expected activity), it is called a synergistic effect. The activity expected by the combination of two active ingredients can be calculated as follows (Colby S. R., “Weed”, vol. 15, p. 20-22, 1967). […] β: growth inhibition rate when treated with y (g/ha) of herbicide Y, E: growth inhibition rate expected when treated with x (g/ha) of herbicide X and y (g/ha) of herbicide Y. That is, when the actual growth inhibition rate (measured value) is larger than the growth inhibition rate by the above calculation (calculated value), the activity by the combination can be regarded as showing a synergistic effect. […] Further, in accordance with the Colby's formula, the growth inhibition rate (%) (calculated value) was calculated.

[2] = test system: bermuda grass (Cynodon dactylon (L.) Pers.); assay: Test Example 2: foliar treatment pot test, visually observed growth inhibition of bermuda grass; details: 504 h, foliar treatment at 4.0 to 4.5 leaf stage, 0.25 vol % Agral, 21 days after treatment, read-out: Growth inhibition rate (%) of bermuda grass, Measured value
Source text: (§1) When the herbicidal activity in a case where two active ingredients are combined, is larger than the simple sum of the respective herbicidal activities of the two active ingredients (the expected activity), it is called a synergistic effect. The activity expected by the combination of two active ingredients can be calculated as follows (Colby S. R., “Weed”, vol. 15, p. 20-22, 1967). E=α+β−(α×β÷100) where α: growth inhibition rate when treated with x (g/ha) of herbicide X,
(§2) β: growth inhibition rate when treated with y (g/ha) of herbicide Y,
(§3) E: growth inhibition rate expected when treated with x (g/ha) of herbicide X and y (g/ha) of herbicide Y.
(§4) That is, when the actual growth inhibition rate (measured value) is larger than the growth inhibition rate by the above calculation (calculated value), the activity by the combination can be regarded as showing a synergistic effect.
(§5) Growth inhibition rate (%)=0 (equivalent to the non-treated area) to 100 (complete kill)
Upland field soil was put into a 1/1,000,000 ha pot, and seeds of bermuda grass (Cynodon dactylon (L.) Pers.) were sown. […]

corn (Zea mays L.) = assay: Test Example 4: soil treatment pot test, visually observed growth inhibition of corn (crop plant which became weeds); details: soil treatment one day after sowing, 28 days after treatment, read-out: Growth inhibition rate (%) of corn, Measured value
Source text: When the herbicidal activity in a case where two active ingredients are combined, is larger than the simple sum of the respective herbicidal activities of the two active ingredients (the expected activity), it is called a synergistic effect. The activity expected by the combination of two active ingredients can be calculated as follows (Colby S. R., “Weed”, vol. 15, p. 20-22, 1967). […] β: growth inhibition rate when treated with y (g/ha) of herbicide Y, E: growth inhibition rate expected when treated with x (g/ha) of herbicide X and y (g/ha) of herbicide Y. That is, when the actual growth inhibition rate (measured value) is larger than the growth inhibition rate by the above calculation (calculated value), the activity by the combination can be regarded as showing a synergistic effect. […] One day later, water dispersible granules containing flazasulfuron as an active ingredient (tradename: SHIBAGEN DF) and water dispersible granules containing amicarbazone as an active ingredient ([…]) in predetermined amounts were diluted with water (corresponding to 200 Uha) and applied for soil treatment by a small sprayer.

[3] = test system: green kyllinga (Cyperus brevifolius var. leiolepis); assay: Test Example 3: foliar treatment pot test, visually observed growth inhibition of green kyllinga; details: 672 h, read-out: Growth inhibition rate (%) of green kyllinga, Measured value
Source text: as §1, §2, §3, §4, §5
Upland field soil was put into a 1/1,000,000 ha pot, and tubers of green kyllinga (Cyperus brevifolius var. leiolepis) were planted. […]

## COc1cc(OC)nc(NC(=O)NS(=O)(=O)c2ncccc2C(F)(F)F)n1 [Flazasulfuron, 1-(4,6-dimethoxypyrimidin-2-yl)-3-(3-trifluoromethyl-2-pyridylsulfonyl)urea]
[1]; dose 37.5 g/ha
  inhibition at 37.5 g/ha: 53%
[2]; dose 200 g/ha
  inhibition at 200 g/ha: 15%
Corn (Zea mays L.); dose 5 g/ha
  inhibition at 5 g/ha: 40%
[3]; dose 5 g/ha, foliar treatment at 6.0 to 7.0 cm, 0.025 vol % Agral, 28 days after treatment
  inhibition at 5 g/ha: 0%

## CC(C)c1nn(C(=O)NC(C)(C)C)c(=O)n1N [Amicarbazone, 4-amino-N-tertiary butyl-4,5-dihydro-3-isopropyl-5-oxo-1,2,4-1H-triazole-1-carboxamide]
[1]; dose 1050 g/ha
  inhibition at 1050 g/ha: 68%
[2]; dose 150 g/ha
  inhibition at 150 g/ha: 0%
Corn (Zea mays L.); dose 2500 g/ha
  inhibition at 2500 g/ha: 87%
[3]; foliar
  inhibition at 1250 g/ha: 69%
